24 compounds from ChEMBL document CHEMBL2062405, “Alkaloids from the root of Isatis indigotica” (J Nat Prod, 2012) can be followed below.

As usually defined, the inhibition is the drop in the measured response relative to a control, in per cent.

One test concerns BGC-823. Briefly: Cytotoxicity against human BGC823 cells at 10 uM after 96 hrs by MTT assay. Format: functional, cell-based. On the technique in general: Tetrazolium dyes change colour on reduction, which living cells bring about.
The subject of test [1] is Human immunodeficiency virus 1. Briefly: Antiviral activity against HIV1 infected in 293T cells cotransfected with VSV-G at 10 uM after 48 hrs by ELISA. Format: functional, organism-based. On the technique in general: An ELISA detects its analyte on a solid surface through an enzyme-linked reagent.
For a further test, the system named is A549. Briefly: Cytotoxicity against human A549 cells at 10 uM after 96 hrs by MTT assay. Format: functional, cell-based.
The test system of the next test is KETR3. Briefly: Cytotoxicity against human Ketr3 cells at 10 uM after 96 hrs by MTT assay. Format: functional, cell-based.
Another test deals with MCF7. As to the kind of experiment: Cytotoxicity against human MCF7 cells at 10 uM after 96 hrs by MTT assay. Format: functional, cell-based.
The test system of the next test is Human alphaherpesvirus 1. Briefly: Antiviral activity against Herpes simplex virus 1 at 10 uM. The test is classed as functional, organism-based.
For a further test, the system named is Bel-7402. As to the kind of experiment: Cytotoxicity against human Bel7402 cells at 10 uM after 96 hrs by MTT assay. The test is classed as functional, cell-based.
The next test has as its system HCT-8. As to the kind of experiment: Cytotoxicity against human HCT8 cells at 10 uM after 96 hrs by MTT assay. Format: functional, cell-based.
Test [2] in a line: Hepatoprotective activity in rat WB-F344 cells assessed as inhibition of DL-Galactosamine-induced toxicity at 10 uM incubated for 1 hr prior to DL-Galactosamine-challenge measured after 24 hrs by MTT assay. Format: functional.

Activity calls are given as the source filed them. The rule behind the calls is not given here.

As for `O=c1cc(-c2ccc(CO)o2)c2cc(O)ccc2[nH]1`, the result (in the test on BGC-823; in [1]; in the test with A549; in the test with KETR3; with MCF7; with Human alphaherpesvirus 1) was inactive. The outcome in the test on Bel-7402 and in the test on HCT-8 was inactive.

For the compound `O=C1c2ccccc2-n2c1nc1ccccc1c2=O`, the outcome (in the test on BGC-823; in test [1]; in the test with A549; in the test on KETR3; in the test on MCF7; with Human alphaherpesvirus 1) was inactive. Moreover, the result in the test with Bel-7402 and in the test with HCT-8 was inactive.

With `NC(=O)C[C@H]1C(=O)Nc2cccc(O)c21`, the result (with BGC-823; in test [1]; in the test on A549; with KETR3; in the test with MCF7; with Human alphaherpesvirus 1) was inactive. Further, the outcome in the test with Bel-7402 and in the test with HCT-8 was inactive.

On to `O=C1CC2(O)c3ccccc3N3C(=O)c4ccccc4N1C32` (stereo not drawn), for which the inhibition at 10 µM in test [2] amounted to 47%.

Consider `COC(=O)c1ccccc1NC(=O)c1c[nH]c2ccccc2c1=O`, for which the result (in the test on BGC-823; in test [1]; in the test with A549; in the test with KETR3; in the test on MCF7; with Human alphaherpesvirus 1) was inactive. In addition, the result with Bel-7402 and with HCT-8 was inactive.

As for `O=C1C[C@@]2(O)c3ccccc3N3C(=O)c4ccccc4N1[C@H]32`, the outcome (in the test with BGC-823; in test [1]; in the test on A549; with KETR3; in the test with MCF7; with Human alphaherpesvirus 1) was inactive. The outcome in the test on Bel-7402 and in the test on HCT-8 was inactive.

For `O=C1Nc2ccccc2/C1=C1/Nc2ccccc2C1=O`, the outcome (in the test on BGC-823; in test [1]; in the test with A549; in the test with KETR3; in the test on MCF7; in the test with Human alphaherpesvirus 1) was inactive. The result in the test with Bel-7402 and in the test on HCT-8 was inactive.

For the compound `Oc1ccc2[nH]c(O)cc2c1`, the outcome (in the test with BGC-823; in test [1]; with A549; in the test on KETR3; in the test with MCF7; with Human alphaherpesvirus 1) was inactive. The result with Bel-7402 and in the test with HCT-8 was inactive.

`Nc1ccccc1C(=O)O[C@@H]1O[C@H](CO)[C@@H](O)[C@H](O)[C@H]1O`: the result (in the test on BGC-823; in test [1]; in the test with A549; in the test with KETR3; in the test with MCF7; in the test on Human alphaherpesvirus 1) was inactive. The outcome with Bel-7402 and in the test with HCT-8 was inactive.

In the case of `COC(=O)c1cc(OC)c2c(c1-c1c(CO)cc(OC)c3c1OCO3)OCO2` [BICYCLOL], the inhibition at 10 µM in test [2] was 42%.

Take `N#C/C=C1/C(=O)Nc2cccc(O)c21`: the outcome (in the test on BGC-823; in test [1]; with A549; in the test on KETR3; in the test with MCF7; in the test with Human alphaherpesvirus 1) was inactive. In addition, the result in the test with Bel-7402 and in the test with HCT-8 was inactive.

`C[C@H]1OC2=C(NC1=O)C(=O)OCC2`: the result (with BGC-823; in test [1]; with A549; in the test on KETR3; with MCF7; in the test with Human alphaherpesvirus 1) was inactive. Further, the outcome in the test on Bel-7402 and with HCT-8 was inactive.

In the case of `NC(=O)C[C@@]1(O)C(=O)Nc2ccccc21`, the outcome (with BGC-823; in test [1]; with A549; in the test on KETR3; with MCF7; with Human alphaherpesvirus 1) was inactive. In addition, the result in the test with Bel-7402 and in the test on HCT-8 was inactive.

Regarding `N#CCc1c[nH]c2cc(O[C@@H]3O[C@H](CO)[C@@H](O)[C@H](O)[C@H]3O)ccc12`, the result (in the test with BGC-823; in [1]; in the test on A549; with KETR3; in the test on MCF7; in the test on Human alphaherpesvirus 1) was inactive. The outcome with Bel-7402 and with HCT-8 was inactive.

As for `O=Cc1c[nH]c2ccccc12`, the result (in the test on BGC-823; in test [1]; in the test with A549; in the test with KETR3; in the test on MCF7; with Human alphaherpesvirus 1) was inactive. Besides, the outcome in the test with Bel-7402 and with HCT-8 was inactive.

For the compound `O=C1O[C@H]([C@@H](O)CO)[C@@H](O)[C@@]1(O)Cc1c[nH]c2ccccc12`, the outcome (in the test with BGC-823; in test [1]; in the test with A549; with KETR3; with MCF7; in the test on Human alphaherpesvirus 1) was inactive. In addition, the result with Bel-7402 and in the test on HCT-8 was inactive.

As for `N#CC[C@@]1(O)C(=O)Nc2ccccc21`, the outcome (in the test with BGC-823; in test [1]; in the test on A549; in the test on KETR3; with MCF7; with Human alphaherpesvirus 1) was inactive. Also, the outcome in the test on Bel-7402 and with HCT-8 was inactive.

With `O=C1C[C@]2(O)c3ccccc3N3C(=O)c4ccccc4N1[C@@H]32`, the outcome (in the test with BGC-823; in test [1]; in the test with A549; in the test on KETR3; in the test on MCF7; with Human alphaherpesvirus 1) was inactive. The result in the test on Bel-7402 and in the test with HCT-8 was inactive.

Take `OC[C@H]1O[C@@H](Oc2c[nH]c3ccccc23)[C@H](O)[C@@H](O)[C@@H]1O`: the result (with BGC-823; in [1]; in the test on A549; in the test on KETR3; with MCF7; in the test with Human alphaherpesvirus 1) was inactive. Also, the result in the test with Bel-7402 and in the test with HCT-8 was inactive.

Consider `N#CC[C@@]1(O)C(=O)Nc2cccc(O)c21`, for which the result (in the test on BGC-823; in [1]; in the test with A549; with KETR3; in the test on MCF7; in the test on Human alphaherpesvirus 1) was inactive. Besides, the result in the test with Bel-7402 and in the test on HCT-8 was inactive.

In the case of `COc1cccc2c1[C@@](O)(CC(N)=O)C(=O)N2`, the outcome (in the test on BGC-823; in test [1]; with A549; with KETR3; in the test on MCF7; in the test with Human alphaherpesvirus 1) was inactive. Moreover, the result with Bel-7402 and with HCT-8 was inactive.

For the compound `COn1cc(CC#N)c2ccccc21`, the result (in the test with BGC-823; in test [1]; in the test on A549; in the test with KETR3; in the test with MCF7; in the test on Human alphaherpesvirus 1) was inactive. Moreover, the outcome with Bel-7402 and with HCT-8 was inactive.

As to `N#CCc1c[nH]c2ccccc12`, the result (in the test on BGC-823; in test [1]; with A549; in the test on KETR3; with MCF7; in the test on Human alphaherpesvirus 1) was inactive. The result in the test on Bel-7402 and in the test with HCT-8 was inactive.

Consider `O=C1/C(=C2\Nc3ccccc3C2=O)Nc2ccccc21`, for which the outcome (in the test with BGC-823; in test [1]; with A549; with KETR3; in the test with MCF7; in the test on Human alphaherpesvirus 1) was inactive. In addition, the result in the test on Bel-7402 and with HCT-8 was inactive.
